Assay results as given in patent US11161864B2, “Sting agonists” (Venenum Biodesign, LLC, priority 2018, dated 2021).
Like-named read-outs stand apart in the source and are kept apart here.

Experiments:
[1] = molecular target: AQ variant of truncated human STING protein, amino acids 155-379 (Homo sapiens (Human), UniProt Q86WV6, G230A/H232R/R293Q); experiment: Human AQ STING [3H] 2′,3′-cGAMP scintillation proximity competition binding assay
From the text: (§1) A human STING [^3H] 2′,3′-cGAMP scintillation proximity competition binding assay was utilized to detect binding of compounds to STING protein. […] The protein encoding plasmid contained a HIS tag, followed by an Avi tag and then a SUMO tag, which were followed by the STING coding sequence within the pET-28a (+) vector. The plasmid was transfected into a BL21 (DE3)/BirA E. coli co-expression strain. Protein was purified from the bacterial lysate using a cobalt-affinity column. The purified protein was dialyzed against PBS and then 20% glycerol was added prior to storage at −80° C.
(§2) 2′,3′-cGAMP in assay buffer (50 mM Tris pH 7.5, 100 mM NaCl, 0.1% Fatty Acid Free BSA). Test compounds (2.5 μL) were added to the plate first followed by a 25 μL mixture of STING protein, streptavidin PVT SPA beads (Perkin Elmer) and 10 μL [^3H] 2′,3′-cGAMP. Plates were incubated at room temperature for 18 hrs and read on a Wallac MicroBeta TriLux (Perkin Elmer).

[2] = molecular target: murine STING protein (amino acids 154-378) (Mus musculus (Mouse), UniProt Q3TBT3); experiment: Murine STING [3H] 2′,3′-cGAMP scintillation proximity competition binding assay
[3] = molecular target: wild-type (WT) truncated human STING protein, amino acids 155-379 (Homo sapiens (Human), UniProt Q86WV6, H232R); experiment: Human WT STING [3H] 2′,3′-cGAMP scintillation proximity competition binding assay
From the text: as §1, §2

[4] = read-out: Human AQ Binding IC50
[5] = read-out: Human WT Binding IC50

AQ variant of truncated human STING protein, amino acids 155-379, sequence (Q86WV6 155-379 G230A/H232R/R293Q): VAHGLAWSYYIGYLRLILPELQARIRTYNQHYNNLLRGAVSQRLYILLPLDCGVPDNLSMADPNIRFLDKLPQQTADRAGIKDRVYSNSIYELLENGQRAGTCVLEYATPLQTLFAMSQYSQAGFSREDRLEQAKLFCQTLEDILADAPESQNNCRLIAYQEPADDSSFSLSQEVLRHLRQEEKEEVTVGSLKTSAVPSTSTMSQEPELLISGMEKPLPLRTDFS
murine STING protein (amino acids 154-378), sequence (Q3TBT3 154-378): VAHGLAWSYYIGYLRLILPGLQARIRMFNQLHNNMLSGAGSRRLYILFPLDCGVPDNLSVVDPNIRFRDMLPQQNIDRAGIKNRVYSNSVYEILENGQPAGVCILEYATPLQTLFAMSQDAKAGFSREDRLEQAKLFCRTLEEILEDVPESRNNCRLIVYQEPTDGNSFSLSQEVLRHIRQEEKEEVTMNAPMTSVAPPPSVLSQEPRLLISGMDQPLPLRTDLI
wild-type (WT) truncated human STING protein, amino acids 155-379, sequence (Q86WV6 155-379 H232R): as the sequence (Q86WV6 155-379 G230A/H232R/R293Q) above, with A76G, Q139R counted along it

| SMILES | IC50 [1, 4] [µM] | IC50 ([2]; read-out: Murine Binding IC50) [µM] | IC50 [3, 5] [µM] | IC50 ([1]; reference compound, unit printed as 'M' (sic), read-out: IC50 using the AQ STING protein) [µM] | IC50 ([2]; reference compound, read-out: IC50, murine STING binding) [µM] | IC50 ([3]; reference compound, read-out: IC50 using the WT STING protein) [µM] |
| --- | --- | --- | --- | --- | --- | --- |
| Nc1nc2c(ncn2[C@@H]2O[C@@H]3COP(=O)(S)OCCn4c(nc5cncnc54)COP(=O)(S)O[C@@H]2[C@@H]3F)c(=O)[nH]1 (single isomer, unassigned) [Example 1A] | < 1 | – | – | – | – | – |
| Nc1nc2c(ncn2[C@@H]2O[C@@H]3COP(=O)(S)OCCn4c(nc5c(N)ncnc54)COP(=O)(S)O[C@@H]2[C@@H]3F)c(=O)[nH]1 (single isomer, unassigned) [Example 7A] | 1 to 9.99 | < 1 | 10 to 100 | – | – | – |
| Nc1nc2c(ncn2[C@@H]2O[C@@H]3COP(=O)(S)OCCn4c(nc5c(N)ncnc54)COP(=O)(S)O[C@@H]2[C@@H]3F)c(=O)[nH]1 (single isomer, unassigned) [Example 7B] | 1 to 9.99 | < 1 | 10 to 100 | – | – | – |
| Nc1nc2c(ncn2[C@@H]2O[C@@H]3COP(=O)(S)OCCn4c(nc5c(N)ncnc54)COP(=O)(S)O[C@@H]2[C@@H]3F)c(=O)[nH]1 (single isomer, unassigned) [Example 7C] | < 1 | < 1 | < 1 | – | – | – |
| Nc1nc2c(ncn2[C@@H]2O[C@@H]3COP(=O)(S)OCCn4c(nc5c(N)ncnc54)COP(=O)(S)O[C@@H]2[C@@H]3F)c(=O)[nH]1 (single isomer, unassigned) [Example 7D] | < 1 | < 1 | 1 to 9.99 | – | – | – |
| Nc1nc2ncn([C@@H]3O[C@@H]4COP(=O)(S)OCCn5c(nc6cc(Cl)cnc65)COP(=O)(S)O[C@@H]3[C@@H]4F)c2c(=O)[nH]1 (single isomer, unassigned) [Example 13B] | 10 to 100 | 1 to 9.99 | 10 to 100 | – | – | – |
| Nc1nc2c(ncn2[C@@H]2O[C@@H]3COP(=O)(S)OCCn4c(nc5cncnc54)COP(=O)(S)O[C@@H]2[C@H]3F)c(=O)[nH]1 (single isomer, unassigned) [Example 25B] | – | – | 10 to 100 | – | – | – |
| Nc1nc2c(ncn2[C@@H]2O[C@@H]3COP(=O)(S)OCCn4c(nc5cncnc54)COP(=O)(S)O[C@@H]2[C@H]3F)c(=O)[nH]1 (single isomer, unassigned) [Example 25D] | < 1 | – | < 1 | – | – | – |
| CO[C@H]1[C@H]2OP(=O)(S)OCc3nc4cncnc4n3CCOP(=O)(S)OC[C@H]1O[C@H]2n1cnc2c(=O)[nH]c(N)nc21 (single isomer, unassigned) [Example 27B] | 1 to 9.99 | < 1 | 10 to 100 | – | – | – |
| CO[C@H]1[C@H]2OP(=O)(S)OCc3nc4cncnc4n3CCOP(=O)(S)OC[C@H]1O[C@H]2n1cnc2c(=O)[nH]c(N)nc21 (single isomer, unassigned) [Example 27C] | < 1 | < 1 | < 1 | – | – | – |
| CO[C@H]1[C@H]2OP(=O)(S)OCc3nc4cncnc4n3CCOP(=O)(S)OC[C@H]1O[C@H]2n1cnc2c(=O)[nH]c(N)nc21 (single isomer, unassigned) [Example 27D] | < 1 | < 1 | 1 to 9.99 | – | – | – |
| C[C@H]1Cn2c(nc3cncnc32)COP(=O)(S)O[C@@H]2[C@H](F)[C@@H](COP(=O)(S)O1)O[C@H]2n1cnc2c(=O)[nH]c(N)nc21 (single isomer, unassigned) [Example 33C] | – | – | 10 to 100 | – | – | – |
| Nc1nc2c(ncn2[C@@H]2O[C@@H]3COP(=O)(O)O[C@@H]4[C@H](O)[C@@H](COP(=O)(O)O[C@@H]2[C@@H]3O)O[C@H]4n2cnc3c(N)ncnc32)c(=O)[nH]1 [2′,2′-cGAMP, reference compound] | – | – | – | 0.098 | 0.055 | 0.562 |
| Nc1nc2c(ncn2[C@@H]2O[C@@H]3COP(=O)(O)OCCCn4c(nc5cncnc54)COP(=O)(O)O[C@@H]2[C@@H]3O)c(=O)[nH]1 [Example 2, (1R,22R,24R,25R)-24-(2-Amino-6-oxo-6,9-dihydro-1H-purin-9-yl)-3,19,25-trihydroxy-2,4,18,20,23-pentaoxa-710,122,14-tetraaza-3lambda5,19lambda5-diphosphatetracyclo[20.2.1.06,14.08,13]pentacosa-6,8(13),9,11-tetraene-3,19-dione] | 10 to 100 | – | 10 to 100 | – | – | – |
| Nc1nc2c(ncn2[C@@H]2O[C@@H]3COP(=O)(O)OCCn4c(nc5cncnc54)COP(=O)(O)O[C@@H]2[C@@H]3F)c(=O)[nH]1 [Example 4, (1S,21R,23R,24R)-23-(2-Amino-6-oxo-6,9-dihydro-1H-purin-9-yl)-24-fluoro-3,18-dihydroxy-2,4,17,19,22-pentaoxa-7,10,12,14-tetraaza-3lambda5,18lambda5-diphosphatetracyclo[19.2.1.06,14.08,13]tetracosa-6,8(13),9,11-tetraene-3,18-dione] | 1 to 9.99 | < 1 | 10 to 100 | – | – | – |
| Nc1ncnc2c1ncn2[C@@H]1O[C@@H]2COP(=O)(S)OCCn3c(nc4cncnc43)COP(=O)(S)O[C@@H]1[C@@H]2O (stereo partly drawn) [Example 8, (1R,21R,23R,24R)-23-(6-Amino-9H-purin-9-yl)-24-hydroxy-3,18-disulfanyl-2,4,17,19,22-pentaoxa-7,10,12,14-tetraaza-3lambda5,18lambda5-diphosphatetracyclo[19.2.1.06,14.08,13]tetracosa-6,8(13),9,11-tetraene-3,18-dione] | 10 to 100 | 1 to 9.99 | 10 to 100 | – | – | – |
| Nc1nc2c(ncn2[C@@H]2O[C@@H]3COP(=O)(S)OCCCn4c(nc5cncnc54)COP(=O)(S)O[C@@H]2[C@@H]3O)c(=O)[nH]1 (stereo partly drawn) [Example 9, (1R,22R,24R,25R)-24-(2-Amino-6-oxo-6,9-dihydro-1H-purin-9-yl)-25-hydroxy-3,19-disulfanyl-2,4,18,20,23-pentaoxa-7,10,12,14-tetraaza-3lambda5,19lambda5-diphosphatetracyclo[20.2.1.06,14.08,13]pentacosa-6,8,10,12-tetraene-3,19-dione] | 1 to 9.99 | 1 to 9.99 | 10 to 100 | – | – | – |
| Nc1nc2c(ncn2[C@@H]2O[C@@H]3COP(=O)(O)OCCn4c(nc5cncnc54)COP(=O)(O)O[C@@H]2[C@@H]3O)c(=O)[nH]1 [Example 10, (1R,21R,23R,24R)-23-(2-Amino-6-oxo-6,9-dihydro-1H-purin-9-yl)-3,18,24-trihydroxy-2,4,17,19,22-pentaoxa-7,10,12,14-tetraaza-3lambda5,18lambda5-diphosphatetracyclo[19.2.1.06,14.08,13]tetracosa-6,8,10,12-tetraene-3,18-dione] | 1 to 9.99 | < 1 | 10 to 100 | – | – | – |
| Nc1nc2c(ncn2[C@@H]2O[C@@H]3COP(=O)(S)OCCn4c(nc5cncnc54)COP(=O)(S)O[C@@H]2C3(F)F)c(=O)[nH]1 (stereo partly drawn) [Example 36D, (1S,21R,23R)-23-(2-Amino-6-oxo-6,9-dihydro-1H-purin-9-yl)-24,24-difluoro-3,18-disulfanyl-2,4,17,19,22-pentaoxa-7,10,12,14-tetraaza-3lambda5,18lambda5-diphosphatetracyclo[19.2.1.06,14.08,13]tetracosa-6,8,10,12-tetraene-3,18-dione] | 1 to 9.99 | < 1 | 10 to 100 | – | – | – |
| Nc1nc2c(ncn2[C@@H]2O[C@@H]3COP(=S)(S)OCCn4c(nc5cncnc54)COP(=O)(S)O[C@@H]2[C@@H]3F)c(=O)[nH]1 (stereo partly drawn) [Example 39, (1S,21R,23R,24R)-23-(2-Amino-6-oxo-6,9-dihydro-1H-purin-9-yl)-24-fluoro-3,18-disulfanyl-18-sulfanylidene-2,4,17,19,22-pentaoxa-7,10,12,14-tetraaza-3lambda5,18lambda5-diphosphatetracyclo[19.2.1.06,14.08,13]tetracosa-6,8(13),9,11-tetraen-3-one] | – | < 1 | – | – | – | – |
| COCc1ncc2nc3n(c2n1)CCOP(=O)(S)OC[C@H]1O[C@@H](n2cnc4c(=O)[nH]c(N)nc42)[C@H](OP(=O)(S)OC3)[C@@H]1F (stereo partly drawn) [Example 40C, (1S,21R,23R,24R)-23-(2-Amino-6-oxo-6,9-dihydro-H-purin-9-yl)-24-fluoro-11-(methoxymethyl)-3,18-disulfanyl-2,4,17,19,22-pentaoxa-7,10,12,14-tetraaza-3lambda5,18lambda5-diphosphatetracyclo[19.2.1.06,14.08,13]tetracosa-6,8,10,12-tetraene-3,18-dione] | 1 to 9.99 | < 1 | 10 to 100 | – | – | – |
